Measurements reported in patent publication US9714247B2, “Multiple kinase pathway inhibitors” (Mannkind Corporation, priority 2012, dated 2017).
Like-named read-outs stand apart in the source and are kept apart here.

Assays:
ASK1(h) = ASK1(h) (Homo sapiens (Human), UniProt Q99683); assay: IC50 profiler radiometric kinase assay (Millipore); format: biochemical; conditions: STE
Procedure: (§1) In order to determine the relative enzyme selectivity of these amino naphthyridinones, representative amino naphthyridinones were evaluated for their ability to inhibit various kinases. Kinases were selected for a broad representation of the kinome (see FIG. 2: Kinases Evaluated). Compounds were evaluated using the IC50 profiler assay (Millipore), which measures substrate phosphorylation via γ-^33P-ATP transfer by the kinase of interest.
(§2) The assay directly measures the catalytic incorporation of phosphate onto kinase substrates. The kinase protein is incubated in buffer with substrate and γ-^33P-ATP. The reaction is initiated by the addition of the Mg-ATP mix. At the end of the reaction incubation time, the reaction is stopped by the addition of phosphoric acid solution and 10 μL of the reaction is spotted onto a filtermat, washed, dried and counted in scintillation fluid. […] In particular the amino naphthyridinones inhibited Abl and some but not all tested members of the Tec and Src families of tyrosine kinases, but not tyrosine-like kinases or the non-tyrosine kinases tested (See FIG. 2: Compound 1). […] Other known drugs with activity against BTK and SFKs, such as dasatinib and bosutinib, have activity against a broader array of tyrosine kinases as well as inhibiting non-tyrosine kinases (See FIG. 2: Dasatinib).

Abl(T315I)(h) = Abl(T315I)(h) (Homo sapiens (Human), UniProt P00519, T315I); assay: IC50 profiler radiometric kinase assay (Millipore); format: biochemical; conditions: TK
Procedure: as §1, §2

BTK(h) = BTK(h) (Homo sapiens (Human), UniProt Q06187); assay: IC50 profiler radiometric kinase assay (Millipore); format: biochemical; conditions: TK
Procedure: as §1, §2

CDK7/cyclinH/MAT1(h) = CDK7/cyclinH/MAT1(h) (Homo sapiens (Human), UniProt P50613); assay: IC50 profiler radiometric kinase assay (Millipore); format: biochemical; conditions: CMGC
Procedure: as §1, §2

CHK1(h) = CHK1(h) (Homo sapiens (Human), UniProt O14757); assay: IC50 profiler radiometric kinase assay (Millipore); format: biochemical; conditions: CAMK
Procedure: as §1, §2

CK1δ(h) = CK1δ(h) (Homo sapiens (Human), UniProt P48730); assay: IC50 profiler radiometric kinase assay (Millipore); format: biochemical; conditions: CK1
Procedure: as §1, §2

EGFR(h) = EGFR(h) (Homo sapiens (Human), UniProt P00533); assay: IC50 profiler radiometric kinase assay (Millipore); format: biochemical; conditions: TK
Procedure: as §1, §2

Flt3(h) = Flt3(h) (Homo sapiens (Human), UniProt P36888); assay: IC50 profiler radiometric kinase assay (Millipore); format: biochemical; conditions: TK
Procedure: as §1, §2

GSK3α(h) = GSK3α(h) (Homo sapiens (Human), UniProt P49840); assay: IC50 profiler radiometric kinase assay (Millipore); format: biochemical; conditions: CMGC
GSK3α(h), sequence (P49840 whole entry): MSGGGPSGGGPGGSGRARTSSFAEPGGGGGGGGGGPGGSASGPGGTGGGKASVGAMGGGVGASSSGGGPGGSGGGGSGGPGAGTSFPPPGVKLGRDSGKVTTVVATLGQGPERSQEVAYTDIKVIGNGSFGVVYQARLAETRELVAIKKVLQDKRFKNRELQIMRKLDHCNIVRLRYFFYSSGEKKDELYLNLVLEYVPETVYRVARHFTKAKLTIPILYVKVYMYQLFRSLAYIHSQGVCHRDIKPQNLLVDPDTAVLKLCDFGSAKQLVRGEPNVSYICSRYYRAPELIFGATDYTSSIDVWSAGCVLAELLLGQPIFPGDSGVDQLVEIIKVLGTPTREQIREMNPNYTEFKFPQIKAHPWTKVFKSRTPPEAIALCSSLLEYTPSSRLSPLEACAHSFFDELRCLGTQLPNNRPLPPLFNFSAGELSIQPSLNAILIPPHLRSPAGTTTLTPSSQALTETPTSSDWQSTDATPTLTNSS
Procedure: as §1, §2

Hck(h) = Hck(h) (Homo sapiens (Human), UniProt P08631); assay: IC50 profiler radiometric kinase assay (Millipore); format: biochemical; conditions: TK
Procedure: as §1, §2

IGF-1R(h) = IGF-1R(h) (Homo sapiens (Human), UniProt P08069); assay: IC50 profiler radiometric kinase assay (Millipore); format: biochemical; conditions: TK
Procedure: as §1, §2

IKKα(h) = IKKα(h) (Homo sapiens (Human), UniProt O15111); assay: IC50 profiler radiometric kinase assay (Millipore); format: biochemical; conditions: MISC
Procedure: as §1, §2

IKKβ(h) = IKKβ(h) (Homo sapiens (Human), UniProt O14920); assay: IC50 profiler radiometric kinase assay (Millipore); format: biochemical; conditions: MISC
Procedure: as §1, §2

Itk(h) = Itk(h) (Homo sapiens (Human), UniProt Q08881); assay: IC50 profiler radiometric kinase assay (Millipore); format: biochemical; conditions: TK
Procedure: as §1, §2

JNK2α2(h) = JNK2α2(h) (Homo sapiens (Human), UniProt P45984); assay: IC50 profiler radiometric kinase assay (Millipore); format: biochemical; conditions: CMGC
Procedure: as §1, §2

KDR(h) = KDR(h) (Homo sapiens (Human), UniProt P35968); assay: IC50 profiler radiometric kinase assay (Millipore); format: biochemical; conditions: TK
KDR(h), sequence (P35968 20-1356): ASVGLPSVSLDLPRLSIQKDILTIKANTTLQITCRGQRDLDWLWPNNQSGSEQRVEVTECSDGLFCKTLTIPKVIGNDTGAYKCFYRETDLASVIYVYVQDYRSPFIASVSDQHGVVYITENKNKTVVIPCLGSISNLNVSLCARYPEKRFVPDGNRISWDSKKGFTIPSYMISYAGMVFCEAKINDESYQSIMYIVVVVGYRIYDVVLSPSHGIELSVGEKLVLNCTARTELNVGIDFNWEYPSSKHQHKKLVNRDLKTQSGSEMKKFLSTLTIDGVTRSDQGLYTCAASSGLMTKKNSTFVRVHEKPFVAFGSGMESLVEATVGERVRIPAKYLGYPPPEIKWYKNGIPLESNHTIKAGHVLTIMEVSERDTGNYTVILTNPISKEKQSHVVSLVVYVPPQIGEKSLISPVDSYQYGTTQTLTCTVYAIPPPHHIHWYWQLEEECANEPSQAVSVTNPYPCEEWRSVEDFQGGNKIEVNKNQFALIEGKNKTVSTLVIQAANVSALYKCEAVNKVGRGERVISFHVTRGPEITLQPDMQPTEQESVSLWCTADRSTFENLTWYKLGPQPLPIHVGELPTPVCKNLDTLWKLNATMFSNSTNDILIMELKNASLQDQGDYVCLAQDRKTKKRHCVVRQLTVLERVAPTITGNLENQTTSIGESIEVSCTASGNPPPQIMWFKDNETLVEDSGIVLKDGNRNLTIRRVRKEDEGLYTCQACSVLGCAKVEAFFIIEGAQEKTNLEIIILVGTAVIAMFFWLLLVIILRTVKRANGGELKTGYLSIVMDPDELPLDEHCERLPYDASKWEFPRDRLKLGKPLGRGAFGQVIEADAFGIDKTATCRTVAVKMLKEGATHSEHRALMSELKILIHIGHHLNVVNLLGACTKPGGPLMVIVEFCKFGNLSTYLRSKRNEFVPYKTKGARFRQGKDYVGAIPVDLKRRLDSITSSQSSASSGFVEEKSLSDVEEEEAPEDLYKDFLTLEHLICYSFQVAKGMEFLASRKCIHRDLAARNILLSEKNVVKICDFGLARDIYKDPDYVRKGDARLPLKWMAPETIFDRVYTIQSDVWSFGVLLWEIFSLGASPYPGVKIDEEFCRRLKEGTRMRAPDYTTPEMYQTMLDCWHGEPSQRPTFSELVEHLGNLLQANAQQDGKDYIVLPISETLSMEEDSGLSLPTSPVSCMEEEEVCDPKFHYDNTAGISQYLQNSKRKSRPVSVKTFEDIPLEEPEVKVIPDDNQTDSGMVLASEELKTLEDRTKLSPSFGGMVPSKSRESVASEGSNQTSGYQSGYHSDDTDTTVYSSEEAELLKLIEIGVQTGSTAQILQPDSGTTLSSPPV
Procedure: as §1, §2

Lck(h) = Lck(h) (Homo sapiens (Human), UniProt P06239); assay: IC50 profiler radiometric kinase assay (Millipore); format: biochemical; conditions: TK
Procedure: as §1, §2

MAPK1(h) = MAPK1(h) (Homo sapiens (Human), UniProt P27361); assay: IC50 profiler radiometric kinase assay (Millipore); format: biochemical; conditions: CMGC
MAPK1(h), sequence (P27361 whole entry): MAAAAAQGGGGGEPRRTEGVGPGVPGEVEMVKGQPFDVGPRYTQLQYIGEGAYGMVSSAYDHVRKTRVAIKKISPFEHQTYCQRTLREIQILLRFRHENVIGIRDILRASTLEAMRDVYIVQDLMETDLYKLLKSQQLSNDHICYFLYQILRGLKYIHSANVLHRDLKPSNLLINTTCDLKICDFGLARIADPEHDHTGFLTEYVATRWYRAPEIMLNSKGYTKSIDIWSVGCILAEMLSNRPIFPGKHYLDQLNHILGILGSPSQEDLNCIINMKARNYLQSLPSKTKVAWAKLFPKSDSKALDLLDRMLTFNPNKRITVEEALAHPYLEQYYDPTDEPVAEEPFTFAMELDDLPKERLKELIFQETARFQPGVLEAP
Procedure: as §1, §2

MAPKAP-K2(h) = MAPKAP-K2(h) (Homo sapiens (Human), UniProt P49137); assay: IC50 profiler radiometric kinase assay (Millipore); format: biochemical; conditions: CAMK
Procedure: as §1, §2

MEK1(h) = MEK1(h) (Homo sapiens (Human), UniProt Q02750); assay: IC50 profiler radiometric kinase assay (Millipore); format: biochemical; conditions: STE
Procedure: as §1, §2

PDGFRα(h) = PDGFRα(h) (Homo sapiens (Human), UniProt P16234); assay: IC50 profiler radiometric kinase assay (Millipore); format: biochemical; conditions: TK
Procedure: as §1, §2

PKCα(h) = PKCα(h) (Homo sapiens (Human), UniProt P17252); assay: IC50 profiler radiometric kinase assay (Millipore); format: biochemical; conditions: AGC
Procedure: as §1, §2

Plk1(h) = Plk1(h) (Homo sapiens (Human), UniProt P53350); assay: IC50 profiler radiometric kinase assay (Millipore); format: biochemical; conditions: MISC
Plk1(h), sequence (P53350 whole entry): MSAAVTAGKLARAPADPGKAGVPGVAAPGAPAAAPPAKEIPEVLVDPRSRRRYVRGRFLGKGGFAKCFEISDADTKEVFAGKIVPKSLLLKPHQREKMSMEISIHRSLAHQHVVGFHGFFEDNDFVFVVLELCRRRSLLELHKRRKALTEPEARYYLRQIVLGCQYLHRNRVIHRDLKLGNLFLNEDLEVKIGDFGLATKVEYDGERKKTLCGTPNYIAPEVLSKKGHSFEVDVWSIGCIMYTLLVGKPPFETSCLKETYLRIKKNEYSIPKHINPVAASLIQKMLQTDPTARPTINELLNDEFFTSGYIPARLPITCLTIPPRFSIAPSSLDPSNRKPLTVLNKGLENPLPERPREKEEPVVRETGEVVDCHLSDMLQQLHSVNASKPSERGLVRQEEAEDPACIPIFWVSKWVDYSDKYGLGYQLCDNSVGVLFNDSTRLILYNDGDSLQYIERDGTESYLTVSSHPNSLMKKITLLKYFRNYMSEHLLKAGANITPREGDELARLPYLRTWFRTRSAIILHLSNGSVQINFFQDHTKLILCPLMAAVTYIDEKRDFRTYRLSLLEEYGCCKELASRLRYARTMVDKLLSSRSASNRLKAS
Procedure: as §1, §2

SAPK2a(h) = SAPK2a(h) (Homo sapiens (Human), UniProt Q16539); assay: IC50 profiler radiometric kinase assay (Millipore); format: biochemical; conditions: CMGC
Procedure: as §1, §2

SAPK2b(h) = SAPK2b(h) (Homo sapiens (Human), UniProt Q15759); assay: IC50 profiler radiometric kinase assay (Millipore); format: biochemical; conditions: CMGC
Procedure: as §1, §2

Src(1-530)(h) = Src(1-530)(h) (Homo sapiens (Human), UniProt P12931); assay: IC50 profiler radiometric kinase assay (Millipore); format: biochemical; conditions: TK
Procedure: as §1, §2

Tie2(h) = Tie2(h) (Homo sapiens (Human), UniProt Q02763); assay: IC50 profiler radiometric kinase assay (Millipore); format: biochemical; conditions: TK
Procedure: as §1, §2

c-Kit(h) = c-Kit(h) (Homo sapiens (Human), UniProt P10721); assay: IC50 profiler radiometric kinase assay (Millipore); format: biochemical; conditions: TK
Procedure: as §1, §2

cSRC(h) = cSRC(h) (Homo sapiens (Human), UniProt P12931); assay: IC50 profiler radiometric kinase assay (Millipore); format: biochemical; conditions: TK
Procedure: as §1, §2

mTOR(h) = mTOR(h) (Homo sapiens (Human), UniProt P42345); assay: IC50 profiler radiometric kinase assay (Millipore); format: biochemical; conditions: Lipid/Atypical
Procedure: as §1, §2

CDK2/cyclinA(h) = CDK2/cyclinA(h) (Homo sapiens (Human), UniProt P24941); assay: IC50 profiler radiometric kinase assay (Millipore); format: biochemical; conditions: CMGC
[1] = target: PI3 Kinase (p110α/p85α)(h) (Homo sapiens (Human), UniProt P42336); assay: IC50 profiler radiometric kinase assay (Millipore); format: biochemical; conditions: Lipid/Atypical
Lyn = Lyn (Homo sapiens (Human), UniProt P07948); assay: biochemical
BTK = BTK (Homo sapiens (Human), UniProt Q06187); conditions: read-out: BTK IC50

ASK1(h), sequence (Q99683 whole entry): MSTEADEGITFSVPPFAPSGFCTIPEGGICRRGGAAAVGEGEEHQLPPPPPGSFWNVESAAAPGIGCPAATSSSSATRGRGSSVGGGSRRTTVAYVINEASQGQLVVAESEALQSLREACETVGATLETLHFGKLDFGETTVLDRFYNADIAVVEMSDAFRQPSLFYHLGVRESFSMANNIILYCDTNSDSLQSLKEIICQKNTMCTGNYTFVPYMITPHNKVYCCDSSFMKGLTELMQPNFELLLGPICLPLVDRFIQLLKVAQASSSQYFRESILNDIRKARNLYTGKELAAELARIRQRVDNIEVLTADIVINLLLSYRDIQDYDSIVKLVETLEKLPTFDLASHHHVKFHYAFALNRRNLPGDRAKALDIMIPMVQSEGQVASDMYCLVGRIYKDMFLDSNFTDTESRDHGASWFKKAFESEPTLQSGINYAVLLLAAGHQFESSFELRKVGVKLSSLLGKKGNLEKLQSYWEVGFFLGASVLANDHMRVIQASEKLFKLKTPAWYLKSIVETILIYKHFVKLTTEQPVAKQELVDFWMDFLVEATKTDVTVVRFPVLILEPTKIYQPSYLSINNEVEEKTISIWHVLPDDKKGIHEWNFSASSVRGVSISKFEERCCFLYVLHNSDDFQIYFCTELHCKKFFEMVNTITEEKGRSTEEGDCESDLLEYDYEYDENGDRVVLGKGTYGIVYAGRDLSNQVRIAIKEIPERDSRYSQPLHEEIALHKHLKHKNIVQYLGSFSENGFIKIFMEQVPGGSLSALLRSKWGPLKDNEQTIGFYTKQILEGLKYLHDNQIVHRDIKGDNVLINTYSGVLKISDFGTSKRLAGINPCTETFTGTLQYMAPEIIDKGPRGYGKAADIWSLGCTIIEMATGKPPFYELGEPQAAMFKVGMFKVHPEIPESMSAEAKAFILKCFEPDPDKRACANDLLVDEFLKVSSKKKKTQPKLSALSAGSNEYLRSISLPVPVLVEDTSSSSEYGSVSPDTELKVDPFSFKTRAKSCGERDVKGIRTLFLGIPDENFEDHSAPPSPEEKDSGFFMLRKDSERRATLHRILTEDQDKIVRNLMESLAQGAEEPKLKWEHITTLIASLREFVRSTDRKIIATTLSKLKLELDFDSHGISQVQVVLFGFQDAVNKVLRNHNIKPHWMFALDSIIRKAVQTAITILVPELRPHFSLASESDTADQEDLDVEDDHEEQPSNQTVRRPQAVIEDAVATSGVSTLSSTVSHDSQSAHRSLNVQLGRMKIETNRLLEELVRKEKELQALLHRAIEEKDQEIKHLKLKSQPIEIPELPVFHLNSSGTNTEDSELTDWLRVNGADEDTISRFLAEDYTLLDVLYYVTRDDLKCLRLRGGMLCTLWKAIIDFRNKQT

Structure (SMILES) | IC50 (ASK1(h)) [µM] | IC50 (Abl(T315I)(h)) [µM] | IC50 (BTK(h)) [µM] | IC50 (CDK7/cyclinH/MAT1(h)) [µM] | IC50 (CHK1(h)) [µM] | IC50 (CK1δ(h)) [µM] | IC50 (EGFR(h)) [µM] | IC50 (Flt3(h)) [µM] | IC50 (GSK3α(h)) [µM] | IC50 (Hck(h)) [µM] | IC50 (IGF-1R(h)) [µM] | IC50 (IKKα(h)) [µM] | IC50 (IKKβ(h)) [µM] | IC50 (Itk(h)) [µM] | IC50 (JNK2α2(h)) [µM] | IC50 (KDR(h)) [µM] | IC50 (Lck(h)) [µM] | IC50 (MAPK1(h)) [µM] | IC50 (MAPKAP-K2(h)) [µM] | IC50 (MEK1(h)) [µM] | further results
CCN(CC)CCOc1ccc(Nc2cc3c(cn2)cc(-c2ccccc2)c(=O)n3CC)nc1 [Compound 1, 7-[5-(2-Diethylamino-ethoxy)-pyridin-2-ylamino]-1-ethyl-3-phenyl-1H-[1, 6]naphthyridin-2-one] | > 1 | 0.1 to 0.5 | 0.01 to 0.1 | > 1 | > 1 | > 1 | 0.5 to 1 | > 1 | > 1 | 0.01 to 0.1 | > 1 | > 1 | > 1 | > 1 | > 1 | 0.1 to 0.5 | < 0.01 | > 1 | > 1 | > 1 | IC50 (PDGFRα(h)): 0.1 to 0.5 µM; IC50 (PKCα(h)): > 1 µM; IC50 (Plk1(h)): > 1 µM; IC50 (SAPK2a(h)): 0.5 to 1 µM; IC50 (SAPK2b(h)): > 1 µM; IC50 (Src(1-530)(h)): < 0.01 µM; IC50 (Tie2(h)): 0.5 to 1 µM; IC50 (c-Kit(h)): 0.1 to 0.5 µM; IC50 (cSRC(h)): < 0.01 µM; IC50 (mTOR(h)): > 1 µM; IC50 (CDK2/cyclinA(h)): > 1 µM; IC50 [1]: > 1 µM; IC50 (Lyn): 0.1 to 1 µM; IC50 (BTK): < 0.1 µM
CCn1c(=O)c(-c2ccccc2)cc2cnc(Nc3ncc(CCN(C)C)s3)cc21 [Compound 2, 7-[5-(2-Dimethylamino-ethyl)-thiazol-2-ylamino]-1-ethyl-3-phenyl-1H-[1,6]naphthyridin-2-one] | > 1 | 0.5 to 1 | 0.1 to 0.5 | > 1 | > 1 | > 1 | > 1 | > 1 | > 1 | 0.5 to 1 | > 1 | > 1 | > 1 | > 1 | > 1 | 0.5 to 1 | < 0.01 | > 1 | > 1 | > 1 | IC50 (PDGFRα(h)): 0.5 to 1 µM; IC50 (PKCα(h)): > 1 µM; IC50 (Plk1(h)): > 1 µM; IC50 (SAPK2a(h)): > 1 µM; IC50 (SAPK2b(h)): > 1 µM; IC50 (Src(1-530)(h)): 0.01 to 0.1 µM; IC50 (Tie2(h)): > 1 µM; IC50 (c-Kit(h)): 0.1 to 0.5 µM; IC50 (cSRC(h)): 0.1 to 0.5 µM; IC50 (mTOR(h)): > 1 µM; IC50 (CDK2/cyclinA(h)): > 1 µM; IC50 [1]: > 1 µM; IC50 (Lyn; Lyn IC50): 1 to 5 µM; IC50 (BTK): > 5 µM
